In patent US8481540B2, “Inhibitors of bruton's tyrosine kinase” (Hoffmann-La Roche Inc., priority 2010, dated 2013):
Counter-ions that a name gives are not always drawn.

Tested on: not given
Assay: not given
Conditions: not given

SMILES	melting point
Cn1nc(-c2cccc(-n3ncc4cc(C(C)(C)C)cc(F)c4c3=O)c2CO)cc(Nc2ccc(CN3CCC3)cn2)c1=O [I-7, 2-{3-[5-(5-Azetidin-1-ylmethyl-pyridin-2-ylamino)-1-methyl-6-oxo-1,6-dihydro-pyridazin-3-yl]-2-hydroxymethyl-phenyl}-6-tert-butyl-8-fluoro-2H-phthalazin-1-one]	160 to 163 °C
COCCNCc1ccc(Nc2cc(-c3cccc(-n4ncc5cc(C(C)(C)C)cc(F)c5c4=O)c3CO)nn(C)c2=O)nc1 [I-42, 6-tert-Butyl-8-fluoro-2-[2-hydroxymethyl-3-(5-{5-[(2-methoxy-ethylamino)-methyl]-pyridin-2-ylamino}-1-methyl-6-oxo-1,6-dihydro-pyridazin-3-yl)-phenyl]-2H-phthalazin-1-one]	108 to 110 °C
Cn1nc(-c2cccc(-n3ncc4cc(C(C)(C)C)cc(F)c4c3=O)c2CO)cc(Nc2ccn(CC(C)(C)O)n2)c1=O [I-70, 6-tert-Butyl-8-fluoro-2-(2-hydroxymethyl-3-{5-[1-(2-hydroxy-2-methyl-propyl)-1H-pyrazol-3-ylamino]-1-methyl-6-oxo-1,6-dihydro-pyridazin-3-yl}-phenyl)-2H-phthalazin-1-one]	165 to 170 °C
Cn1nc(-c2cccc(-n3ncc4cc(C(C)(C)C)cc(F)c4c3=O)c2CO)cc(Nc2ccc(CN3C[C@@H]4C[C@H]3CN4)cn2)c1=O [I-84, 6-tert-Butyl-2-[3-(5-{5-[(1S,4S)-1-(2,5-diaza-bicyclo[2.2.1]hept-2-yl)methyl]-pyridin-2-ylamino}-1-methyl-6-oxo-1,6-dihydro-pyridazin-3-yl)-2-hydroxymethyl-phenyl]-8-fluoro-2H-phthalazin-1-one]	> 250 °C
Cn1nc(-c2cccc(-n3ncc4cc(C(C)(C)C)cc(F)c4c3=O)c2CO)cc(Nc2cnc(C(F)(F)F)cn2)c1=O [I-11, 6-tert-butyl-8-fluoro-2-{2-hydroxymethyl-3-[1-methyl-6-oxo-5-(5-trifluoromethyl-pyrazin-2-ylamino)-1,6-dihydro-pyridazin-3-yl]-phenyl}-2H-phthalazin-1-one]	250 to 254 °C
CN(C)CCOc1cnc(Nc2cc(-c3cccc(-n4ncc5cc(C(C)(C)C)cc(F)c5c4=O)c3CO)nn(C)c2=O)cn1 [I-36, 6-tert-Butyl-2-(3-{5-[5-(2-dimethylamino-ethoxy)-pyrazin-2-ylamino]-1-methyl-6-oxo-1,6-dihydro-pyridazin-3-yl}-2-hydroxymethyl-phenyl)-8-fluoro-2H-phthalazin-1-one]	185 to 190 °C
Cn1nc(-c2cccc(-n3ncc4cc(C(C)(C)C)cc(F)c4c3=O)c2CO)cc(Nc2cnc([C@H](O)CO)cn2)c1=O [I-57, 6-tert-Butyl-2-(3-{5-[5-((S)-1,2-dihydroxy-ethyl)-pyrazin-2-ylamino]-1-methyl-6-oxo-1,6-dihydro-pyridazin-3-yl}-2-hydroxymethyl-phenyl)-8-fluoro-2H-phthalazin-1-one]	218 to 224 °C

Tested on: B cells in human blood
Assay: Inhibition of B cell activation in whole blood measured by CD69 expression
Assay type: cell-based
Conditions: CD69-positive, CD20-positive cells after anti-IgM stimulation, human whole blood, 20 hours, read-out: Human Whole Blood
Procedure, shortened: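 Heparinised human whole blood was preincubated with compound (nine-point, three-fold dilutions) for 30 min at 37 °C. It was then stimulated with 50 μg/ml goat F(ab′)2 anti-human IgM for 20 hours. CD20/CD69 staining, red-cell lysis and flow cytometry gave percent CD69-positive cells, from which IC50 values were calculated.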

SMILES	IC50
Cn1nc(-c2cccc(-n3ncc4cc(C(C)(C)C)cc(F)c4c3=O)c2CO)cc(Nc2ccc(CN3CCC3)cn2)c1=O [I-7, 2-{3-[5-(5-Azetidin-1-ylmethyl-pyridin-2-ylamino)-1-methyl-6-oxo-1,6-dihydro-pyridazin-3-yl]-2-hydroxymethyl-phenyl}-6-tert-butyl-8-fluoro-2H-phthalazin-1-one]	20 nM
COCCNCc1ccc(Nc2cc(-c3cccc(-n4ncc5cc(C(C)(C)C)cc(F)c5c4=O)c3CO)nn(C)c2=O)nc1 [I-42, 6-tert-Butyl-8-fluoro-2-[2-hydroxymethyl-3-(5-{5-[(2-methoxy-ethylamino)-methyl]-pyridin-2-ylamino}-1-methyl-6-oxo-1,6-dihydro-pyridazin-3-yl)-phenyl]-2H-phthalazin-1-one]	47 nM
Cn1nc(-c2cccc(-n3ncc4cc(C(C)(C)C)cc(F)c4c3=O)c2CO)cc(Nc2ccn(CC(C)(C)O)n2)c1=O [I-70, 6-tert-Butyl-8-fluoro-2-(2-hydroxymethyl-3-{5-[1-(2-hydroxy-2-methyl-propyl)-1H-pyrazol-3-ylamino]-1-methyl-6-oxo-1,6-dihydro-pyridazin-3-yl}-phenyl)-2H-phthalazin-1-one]	117 nM
Cn1nc(-c2cccc(-n3ncc4cc(C(C)(C)C)cc(F)c4c3=O)c2CO)cc(Nc2ccc(CN3C[C@@H]4C[C@H]3CN4)cn2)c1=O [I-84, 6-tert-Butyl-2-[3-(5-{5-[(1S,4S)-1-(2,5-diaza-bicyclo[2.2.1]hept-2-yl)methyl]-pyridin-2-ylamino}-1-methyl-6-oxo-1,6-dihydro-pyridazin-3-yl)-2-hydroxymethyl-phenyl]-8-fluoro-2H-phthalazin-1-one]	242 nM
Cn1nc(-c2cccc(-n3ncc4cc(C(C)(C)C)cc(F)c4c3=O)c2CO)cc(Nc2ccc(OC(C)(C)CO)cn2)c1=O [I-12, 6-tert-butyl-8-fluoro-2-(3-{5-[5-(2-hydroxy-1,1-dimethyl-ethoxy)-pyridin-2-ylamino]-1-methyl-6-oxo-1,6-dihydro-pyridazin-3-yl}-2-hydroxymethyl-phenyl)-2H-phthalazin-1-one]	52 nM
CN1CCN(Cc2ccc(Nc3cc(-c4cccc(-n5ncc6cc(C(C)(C)C)cc(F)c6c5=O)c4CO)nn(C)c3=O)nc2)CC1 [I-41, 6-tert-Butyl-8-fluoro-2-(2-hydroxymethyl-3-{1-methyl-5-[5-(4-methyl-piperazin-1-ylmethyl)-pyridin-2-ylamino]-6-oxo-1,6-dihydro-pyridazin-3-yl}-phenyl)-2H-phthalazin-1-one]	15 nM
CN1C[C@H]2CC[C@@H](C1)N2c1ccc(Nc2cc(-c3cccc(-n4ncc5cc(C(C)(C)C)cc(F)c5c4=O)c3CO)nn(C)c2=O)nc1 [I-66, 6-tert-Butyl-8-fluoro-2-(2-hydroxymethyl-3-{1-methyl-5-[5-((1R,5S)-3-methyl-3,8-diaza-bicyclo[3.2.1]oct-8-yl)-pyridin-2-ylamino]-6-oxo-1,6-dihydro-pyridazin-3-yl}-phenyl)-2H-phthalazin-1-one]	23 nM
CC(C)N1CCN(c2ccc(Nc3cc(-c4cccc(-n5ncc6cc(C(C)(C)C)cc(F)c6c5=O)c4CO)nn(C)c3=O)nc2)CC1 [I-27, 6-tert-Butyl-8-fluoro-2-(2-hydroxymethyl-3-{5-[5-(4-isopropyl-piperazin-1-yl)-pyridin-2-ylamino]-1-methyl-6-oxo-1,6-dihydro-pyridazin-3-yl}-phenyl)-2H-phthalazin-1-one HCl]	89 nM
Cn1nc(-c2cccc(-n3ncc4cc(C(C)(C)C)cc(F)c4c3=O)c2CO)cc(Nc2ccc(S(=O)(=O)CCO)cn2)c1=O [I-26, 6-tert-Butyl-8-fluoro-2-(3-{5-[5-(2-hydroxyethanesulfonyl)-pyridin-2-ylamino]-1-methyl-6-oxo-1,6-dihydro-pyridazin-3-yl}-2-hydroxymethyl-phenyl)-2H-phthalazin-1-one]	152 nM
CN1CC[C@@H](c2ccc(Nc3cc(-c4cccc(-n5ncc6cc(C(C)(C)C)cc(F)c6c5=O)c4CO)nn(C)c3=O)nc2)C1 [I-32, 6-tert-Butyl-8-fluoro-2-(2-hydroxymethyl-3-[1-methyl-5-[5-((S)-1-methyl-pyrrolidin-3-yl)-pyridin-2-ylamino]-6-oxo-1,6-dihydro-pyridazin-3-yl]-phenyl)-2H-phthalazin-1-one]	23 nM
CN1CCN(c2ccc(Nc3cc(-c4cccc(-n5ncc6cc(C(C)(C)C)cc(F)c6c5=O)c4CO)nn(C)c3=O)nc2)CC1 [I-56, 6-tert-Butyl-8-fluoro-2-(2-hydroxymethyl-3-{1-methyl-5-[5-(4-methyl-piperazin-1-yl)-pyridin-2-ylamino]-6-oxo-1,6-dihydro-pyridazin-3-yl}-phenyl)-2H-phthalazin-1-one]	17 nM
CN1CCC[C@H]1c1ccc(Nc2cc(-c3cccc(-n4ncc5cc(C(C)(C)C)cc(F)c5c4=O)c3CO)nn(C)c2=O)nc1 [I-18, 6-tert-Butyl-8-fluoro-2-(2-hydroxymethyl-3-{1-methyl-5-[5-((S)-1-methyl-pyrrolidin-2-yl)-pyridin-2-ylamino]-6-oxo-1,6-dihydro-pyridazin-3-yl}-phenyl)-2H-phthalazin-1-one]	3 nM
Cn1nc(-c2cccc(-n3ncc4cc(C(C)(C)C)cc(F)c4c3=O)c2CO)cc(Nc2ccc(C(=O)N3CCC(O)CC3)cn2)c1=O [I-55, 6-tert-butyl-8-fluoro-2-(2-(hydroxymethyl)-3-(5-(5-(4-hydroxypiperidine-1-carbonyl)pyridin-2-ylamino)-1-methyl-6-oxo-1,6-dihydropyridazin-3-yl)phenyl)phthalazin-1(2H)-one]	41 nM
CN1CCn2nc(Nc3cc(-c4cccc(-n5ccc6cc(C(C)(C)C#N)cc(F)c6c5=O)c4CO)nn(C)c3=O)cc2C1 [I-74, 2-(8-Fluoro-2-{2-hydroxymethyl-3-[1-methyl-5-(5-methyl-4,5,6,7-tetrahydro-pyrazolo[1,5-a]pyrazin-2-ylamino)-6-oxo-1,6-dihydro-pyridazin-3-yl]-phenyl}-1-oxo-1,2-dihydro-isoquinolin-6-yl)-2-methyl-propionitrile]	34 nM
COCCN(C)Cc1ccc(Nc2cc(-c3cccc(-n4ncc5cc(C(C)(C)C)cc(F)c5c4=O)c3CO)nn(C)c2=O)nc1 [I-44, 6-tert-Butyl-8-fluoro-2-{2-hydroxymethyl-3-[5-(5-{[(2-methoxy-ethyl)-methyl-amino]-methyl}-pyridin-2-ylamino)-1-methyl-6-oxo-1,6-dihydro-pyridazin-3-yl]-phenyl}-2H-phthalazin-1-one]	14 nM
CN1CC2(C1)CN(c1ccc(Nc3cc(-c4cccc(-n5ncc6cc(C(C)(C)C)cc(F)c6c5=O)c4CO)nn(C)c3=O)nc1)C2 [I-22, 6-tert-butyl-8-fluoro-2-(2-hydroxymethyl-3-{1-methyl-5-[5-(6-methyl-2,6-diaza-spiro[3.3]hept-2-yl)-pyridin-2-ylamino]-6-oxo-1,6-dihydro-pyridazin-3-yl}-phenyl)-2H-phthalazin-1-one]	33 nM
Cn1nc(-c2cccc(-n3ncc4cc(C(C)(C)C)cc(F)c4c3=O)c2CO)cc(Nc2ccc(OC(C)(C)CN3CCC3)cn2)c1=O [I-13, 2-(3-{5-[5-(2-azetidin-1-yl-1,1-dimethyl-ethoxy)-pyridin-2-ylamino]-1-methyl-6-oxo-1,6-dihydro-pyridazin-3-yl}-2-hydroxymethyl-phenyl)-6-tert-butyl-8-fluoro-2H-phthalazin-1-one]	9 nM

Same assay, conditions: Homo sapiens, 20 h, read-out: Human Whole Blood

SMILES	IC50
CN1CCC(c2ccc(Nc3cc(-c4cccc(-n5ncc6cc(C(C)(C)C)cc(F)c6c5=O)c4CO)nn(C)c3=O)nc2)CC1 [I-67, 6-tert-Butyl-8-fluoro-2-{2-hydroxymethyl-3-[1-methyl-5-(1′-methyl-1′,2′,3′,4′,5′,6′-hexahydro-[3,4]bipyridinyl-6-ylamino)-6-oxo-1,6-dihydro-pyridazin-3-yl]-phenyl}-2H-phthalazin-1-one]	4 nM
Cn1nc(-c2cccc(-n3ncc4cc(C(C)(C)C)cc(F)c4c3=O)c2CO)cc(Nc2ccc(C(=O)N3CCOCC3)cn2)c1=O [I-2, 6-tert-Butyl-8-fluoro-2-(2-hydroxymethyl-3-{1-methyl-5-[5-(morpholine-4-carbonyl)-pyridin-2-ylamino]-6-oxo-1,6-dihydro-pyridazin-3-yl}-phenyl)-2H-phthalazin-1-one]	14 nM

Same assay, conditions: Homo sapiens, 20 h, read-out: Human Whole Blood, CD69-positive, CD20-positive cells after anti-IgM stimulation, human whole blood, 20 hours

SMILES	IC50
CN(C)C(=O)c1ccc(Nc2cc(-c3cccc(-n4ncc5cc(C(C)(C)C)cc(F)c5c4=O)c3CO)nn(C)c2=O)nc1 [I-10, 6-{6-[3-(6-tert-Butyl-8-fluoro-1-oxo-1H-phthalazin-2-yl)-2-hydroxymethyl-phenyl]-2-methyl-3-oxo-2,3-dihydro-pyridazin-4-ylamino}-N,N-dimethyl-nicotinamide]	19 nM
